Series [1] in a line: Drug uptake in iv dosed C57BL/6 mouse brain measured after 60 mins by PET/CT imaging analysis. The series is classed as ADME, organism-based. To be noted: in vivo, 1 h.
The nature of series [2]: Drug uptake in iv dosed C57BL/6 mouse kidney measured after 3 min by PET/CT imaging analysis. It counts as ADME, organism-based. As to conditions: in vivo, 0.05 h; call rule not given here.
Series [3] is described as follows: Drug uptake in iv dosed C57BL/6 mouse brain striatum measured after 60 mins by PET/CT imaging analysis. The series is classed as ADME, organism-based. As to conditions: in vivo, 1 h.
The nature of series [4]: Drug uptake in iv dosed C57BL/6 mouse blood measured after 60 mins. To be noted: in vivo, 1 h.
Series [5] in a line: Drug uptake in iv dosed C57BL/6 mouse brain cerebellum measured after 60 mins by PET/CT imaging analysis. As to conditions: in vivo, 1 h. It counts as ADME, organism-based.
The nature of series [6]: Drug uptake in iv dosed C57BL/6 mouse brain cortex measured after 60 mins by PET/CT imaging analysis. It counts as ADME, organism-based. To be noted: in vivo, 1 h.
The nature of series [7]: Drug uptake in iv dosed C57BL/6 mouse blood measured after 1 min by PET/CT imaging analysis. The series is classed as ADME, organism-based. To be noted: in vivo.
Series [8] is described as follows: Drug uptake in iv dosed C57BL/6 mouse lung measured after 60 mins. As to conditions: in vivo, 1 h.
Series [9] is described as follows: Drug uptake in iv dosed C57BL/6 mouse Brainstem measured after 60 mins by PET/CT imaging analysis. As to conditions: in vivo, 1 h. It counts as ADME, organism-based.
Series [10] is described as follows: Drug uptake in iv dosed C57BL/6 mouse lung measured after 1 min by PET/CT imaging analysis. To be noted: in vivo. The series is classed as ADME, organism-based.
Series [11] can be described thus: Drug uptake in iv dosed C57BL/6 mouse hippocampus measured after 60 mins by PET/CT imaging analysis. The series is classed as ADME, organism-based. To be noted: in vivo, 1 h.
A short description of series [12]: Drug uptake in iv dosed C57BL/6 mouse brain thalamus measured after 60 mins by PET/CT imaging analysis. To be noted: in vivo, 1 h. The series is classed as ADME, organism-based.
Series [13] is described as follows: Drug uptake in iv dosed C57BL/6 mouse liver measured after 60 mins. To be noted: in vivo, 1 h.
Series [14] can be described thus: Drug uptake in iv dosed C57BL/6 mouse Midbrain measured after 60 mins by PET/CT imaging analysis. It counts as ADME, organism-based. As to conditions: in vivo, 1 h.
Series [15] is described as follows: Uptake in iv dosed C57BL/6 mouse kidney measured after 60 mins. To be noted: in vivo, 1 h.
The nature of series [16]: Drug uptake in iv dosed C57BL/6 mouse liver measured after 3 min by PET/CT imaging analysis. The series is classed as ADME, organism-based. As to conditions: in vivo, 0.05 h.

Among the data in ChEMBL document CHEMBL5137033, “Development of sulfonamide-based NLRP3 inhibitors: Further modifications and optimization through structure-activity relationship studies” (Eur J Med Chem, 2022) are Drug uptake values, retold here.

In the case of `C#CCNS(=O)(=O)c1ccc(CCN(Cc2cc(Cl)ccc2OCCC)C(=O)c2ccc([18F])cc2)cc1`, the Drug uptake in series [1] is 1.8 %ID/cc; in series [2], 20 %ID/cc; in series [3], “Active”; in series [4] it was 4.2 %ID/cc; in series [5], “Active”; in series [6], “Active”. In addition, the Drug uptake in [7] is 30.1 %ID/cc; in [8], 4.7 %ID/cc; in series [9] it was “Active”; in [10] it was 22.6 %ID/cc; in series [11], “Active”; in series [12], “Active”. For the same compound, the Drug uptake in series [13] is given as 12 %ID/cc; in series [14] it was “Active”; in [15] it was 12.3 %ID/cc; in series [16], 18.1 %ID/cc.
